Our source for the IC50 values is patent publication US20260049084A1, “ENPP1 MODULATORS AND PRODUCTS AND USES THEREOF” (Gossamer Bio Services, Inc., priority 2022, published 2026).

Bounds are passed on as bounds.

In assay [1] the target is Recombinant human ENPP1 protein (Homo sapiens (Human), UniProt P22413). Put plainly: ENPP1 cGAMP Biochemical Assay. To be noted: 0.5 nM ENPP1, 1000 nM 2′3′-cGAMP substrate, TR-FRET. An outline of the steps:
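Recombinant human ENPP1 (final 0.5 nM) preincubated with compound 30 min at room temperature in 50 mM Tris pH 7.5, 1 mM TCEP, 2 mM MgCl2, 0.005% Tween20; 2′3′-cGAMP (1000 nM final) added, 60 min at 25 °C. AMP/GMP product detected by TR-FRET antibody/tracer competition (2 nM), 120 min.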
(TR-FRET usually uses a lanthanide donor and a delayed reading to cut background.)

The target of assay [2] is Recombinant human ENPP3 protein (Homo sapiens (Human), UniProt O14638). Put plainly: ENPP3 cGAMP Biochemical Assay. To be noted: 70.5 nM ENPP3, 120 μM 2′3′-cGAMP substrate, TR-FRET. An outline of the steps:
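Compound was preincubated 30 min at room temperature with recombinant human ENPP3 (final 70.5 nM) in Tris pH 7.5 with Mg, Ca, Zn and TCEP. 2′3′-cGAMP (120 μM final) was then hydrolysed for 60 min at 25 °C. AMP/GMP product was detected by TR-FRET tracer-displacement immunoassay after 120 min.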

Assay [3] addresses carbonic anhydrase I enzyme (Homo sapiens (Human), UniProt P00915). The assay can be described thus: Carbonic Anhydrase 1 Enzymatic Assay. Format: biochemical. To be noted: enzyme from human erythrocyte, 500 μM 4-nitrophenyl acetate, absorbance 400 nm; read-out: CA I IC50. The method, then: Carbonic Anhydrase 1 Enzymatic Assay
Test compound and/or vehicle was preincubated with carbonic anhydrase I enzyme (15 μg/ml) isolated from human erythrocyte in reaction buffer (50 mM MOPS solution pH 7.5) for 15 minutes at 25° C. The reaction was initiated by addition of 500 μM 4-nitrophenyl acetate and incubated for 30 minutes. The plate was read on a spectrophotometer (Absorbance: 400 nm)

Assay [4] concerns the target carbonic anhydrase II enzyme (Homo sapiens (Human), UniProt P00918). The assay can be described thus: Carbonic Anhydrase 2 Enzymatic Assay. To be noted: enzyme from human erythrocyte, 500 μM 4-nitrophenyl acetate, absorbance 400 nm; read-out: CA II IC50. It counts as biochemical. As to the method: Carbonic Anhydrase 2 Enzymatic Assay
Test compound and/or vehicle was preincubated with carbonic anhydrase II enzyme (15 μg/ml) isolated from human erythrocyte in reaction buffer (50 mM MOPS solution pH 7.5) for 15 minutes at 25° C. The reaction was initiated by addition of 500 μM 4-nitrophenyl acetate and incubated for 30 minutes. The plate was read on a spectrophotometer (Absorbance: 400 nm)

Recombinant human ENPP3 protein, sequence (O14638 whole entry): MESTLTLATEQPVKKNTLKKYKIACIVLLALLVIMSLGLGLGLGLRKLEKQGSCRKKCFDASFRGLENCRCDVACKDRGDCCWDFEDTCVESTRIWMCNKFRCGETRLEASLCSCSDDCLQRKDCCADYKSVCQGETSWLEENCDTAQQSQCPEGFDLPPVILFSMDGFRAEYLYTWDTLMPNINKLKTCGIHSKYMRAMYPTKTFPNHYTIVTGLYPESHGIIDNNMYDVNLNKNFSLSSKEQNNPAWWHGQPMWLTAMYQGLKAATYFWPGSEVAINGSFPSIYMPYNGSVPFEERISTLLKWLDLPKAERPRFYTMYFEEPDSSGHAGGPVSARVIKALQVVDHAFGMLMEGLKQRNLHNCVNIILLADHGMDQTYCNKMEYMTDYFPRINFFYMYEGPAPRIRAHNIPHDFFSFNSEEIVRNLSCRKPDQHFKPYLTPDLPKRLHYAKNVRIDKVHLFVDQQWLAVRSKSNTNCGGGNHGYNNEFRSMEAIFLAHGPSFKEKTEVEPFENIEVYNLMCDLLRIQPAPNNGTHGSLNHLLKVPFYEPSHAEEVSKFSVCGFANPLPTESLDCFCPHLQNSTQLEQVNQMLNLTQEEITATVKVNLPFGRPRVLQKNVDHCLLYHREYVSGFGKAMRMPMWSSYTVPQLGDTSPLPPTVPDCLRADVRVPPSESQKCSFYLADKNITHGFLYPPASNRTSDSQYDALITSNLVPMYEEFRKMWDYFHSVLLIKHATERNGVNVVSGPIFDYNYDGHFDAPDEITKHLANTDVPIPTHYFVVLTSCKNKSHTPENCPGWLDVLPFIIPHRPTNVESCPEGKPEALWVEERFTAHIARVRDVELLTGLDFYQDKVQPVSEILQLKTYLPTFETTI
Recombinant human ENPP1 protein, sequence (P22413 whole entry): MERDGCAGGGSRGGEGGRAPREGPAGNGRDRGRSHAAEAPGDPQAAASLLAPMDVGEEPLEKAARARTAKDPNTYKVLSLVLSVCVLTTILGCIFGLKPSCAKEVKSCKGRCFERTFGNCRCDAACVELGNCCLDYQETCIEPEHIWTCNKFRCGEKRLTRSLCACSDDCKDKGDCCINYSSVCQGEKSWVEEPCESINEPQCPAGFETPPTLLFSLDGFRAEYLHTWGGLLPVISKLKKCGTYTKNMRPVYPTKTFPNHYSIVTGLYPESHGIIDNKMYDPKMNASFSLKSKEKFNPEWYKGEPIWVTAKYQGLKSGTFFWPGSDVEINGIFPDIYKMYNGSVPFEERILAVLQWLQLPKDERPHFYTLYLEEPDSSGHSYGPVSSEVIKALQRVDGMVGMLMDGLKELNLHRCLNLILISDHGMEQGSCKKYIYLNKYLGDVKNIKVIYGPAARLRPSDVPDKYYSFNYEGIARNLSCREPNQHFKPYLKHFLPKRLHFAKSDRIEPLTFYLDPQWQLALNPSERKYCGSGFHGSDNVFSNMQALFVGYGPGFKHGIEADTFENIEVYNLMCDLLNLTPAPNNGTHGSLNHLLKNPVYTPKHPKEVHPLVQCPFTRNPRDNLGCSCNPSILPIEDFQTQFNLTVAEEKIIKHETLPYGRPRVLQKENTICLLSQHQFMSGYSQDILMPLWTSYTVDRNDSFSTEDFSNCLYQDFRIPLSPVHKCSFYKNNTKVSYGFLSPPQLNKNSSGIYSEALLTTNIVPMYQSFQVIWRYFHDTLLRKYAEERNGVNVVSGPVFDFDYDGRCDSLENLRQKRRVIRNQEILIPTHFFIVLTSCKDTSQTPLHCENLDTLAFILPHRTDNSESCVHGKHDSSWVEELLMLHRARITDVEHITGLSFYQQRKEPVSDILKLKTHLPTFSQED
carbonic anhydrase I enzyme, sequence (P00915 whole entry): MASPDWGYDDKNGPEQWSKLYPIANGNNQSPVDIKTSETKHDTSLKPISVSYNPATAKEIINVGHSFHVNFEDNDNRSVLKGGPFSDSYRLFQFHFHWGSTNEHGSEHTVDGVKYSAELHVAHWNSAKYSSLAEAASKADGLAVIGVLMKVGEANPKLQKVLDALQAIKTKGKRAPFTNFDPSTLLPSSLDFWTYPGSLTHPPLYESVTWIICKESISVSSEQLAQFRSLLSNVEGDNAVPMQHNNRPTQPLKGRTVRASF

Usually IC50 stands for the midpoint of a concentration-inhibition curve. Consider `CCn1ncc2c(NCC3CCN(S(=N)(N)=O)CC3)ccnc21` (centres unmarked) [Compound 1A, 4-(((1-ethyl-1H-pyrazolo[3,4-b]pyridin-4-yl)amino)methyl)piperidine-1-sulfonimidamide], for which the IC50 in assay [1] was 10 to 100 nM; in assay [2] it was 100 to 1000 nM; in assay [3], 100 to 1000 nM; in assay [4], not below 1000 nM.
Turning to `CN=[S@@](N)(=O)N1CCC(CNc2ccnc3c2c(Cl)nn3CC#N)CC1` [Compound 15H, (R)-4-(((3-chloro-1-(cyanomethyl)-1H-pyrazolo[3,4-b]pyridin-4-yl)amino)methyl)-N′-methylpiperidine-1-sulfonimidamide], the IC50 was less than 10 nM in assay [1], 100 to 1000 nM in assay [2], not below 1000 nM in assay [3] and not below 1000 nM in assay [4].
As to `C#CCn1nc(Cl)c2c(NCC3CCN(S(N)(=O)=NC)CC3)ccnc21` (centres unmarked) [Compound 15D, 4-(((3-chloro-1-(prop-2-yn-1-yl)-1H-pyrazolo[3,4-b]pyridine-4-yl)amino)methyl)-N′-methylpiperidine-1-sulfonimidamide], the IC50 in assay [1] is less than 10 nM; in assay [2] it was 10 to 100 nM; in assay [3], not below 1000 nM; in assay [4] it was not below 1000 nM.
Regarding `CCn1ncc2c(NCc3ccc(S(N)(=O)=NC#N)cc3)ccnc21` (centres unmarked) [Compound 12G, N′-cyano-4-(((1-ethyl-1H-pyrazolo[3,4-b]pyridin-4-yl)amino)methyl)benzenesulfonimidamide], the IC50 in assay [2] was 100 to 1000 nM; in assay [3], not below 1000 nM; in assay [4], not below 1000 nM.
For the compound `CCn1ncc2c(NCc3ccc(S(=N)(N)=O)cc3)ccnc21` (centres unmarked) [Compound 2A, 4-(((1-ethyl-1H-pyrazolo[3,4-b]pyridin-4-yl)amino)methyl)benzene sulfonimidamide], the IC50 is 10 to 100 nM in assay [1], not below 1000 nM in assay [2], 100 to 1000 nM in assay [3] and not below 1000 nM in assay [4].
For the compound `N#CCn1nc(Cl)c2c(NCC3CCN([S@@](N)(=O)=NC#N)CC3)ccnc21` [Compound 15E, (S)-4-(((3-chloro-1-(cyanomethyl)-1H-pyrazolo[3,4-b]pyridine-4-yl)amino)methyl)-N′-cyanopiperidine-1-sulfonimidamide], the IC50 was less than 10 nM in assay [1], less than 10 nM in assay [2], 100 to 1000 nM in assay [3] and not below 1000 nM in assay [4].
In the case of `C#CCn1nc(Cl)c2c(NCc3ccc(S(N)(=O)=NC#N)cc3)ccnc21` (centres unmarked) [Compound 12I, 4-(((3-chloro-1-(prop-2-yn-1-yl)-1H-pyrazolo[3,4-b]pyridin-4-yl)amino)methyl)-N′-cyanobenzenesulfonimidamide], the IC50 was less than 10 nM in assay [1], less than 10 nM in assay [2], 100 to 1000 nM in assay [3] and not below 1000 nM in assay [4].
Take `C#CCn1nc(Cl)c2c(NCc3ccc([S@@](=N)(=O)NC#N)cc3)ccnc21` [Compound 12K, (S)-4-(((3-chloro-1-(prop-2-yn-1-yl)-1H-pyrazolo[3,4-b]pyridin-4-yl)amino)methyl)-N-cyanobenzenesulfonimidamide]: the IC50 was less than 10 nM in assay [1], less than 10 nM in assay [2], 100 to 1000 nM in assay [3] and 100 to 1000 nM in assay [4].
For `CCn1ncc2c(NCC3CCN(S(C)(=N)=O)CC3)ccnc21` (centres unmarked) [Compound 4A, 1-ethyl-N-((1-(S-methylsulfonimidoyl)piperidin-4-yl)methyl)-1H-pyrazolo[3,4-b]pyridin-4-amine], the IC50 in assay [2], in assay [3] and in assay [4] was not below 1000 nM in each case.
Take `CCn1nc(Br)c2c(NCc3ccc(S(=N)(N)=O)cc3)ccnc21` (centres unmarked) [Compound 2B, 4-(((3-bromo-1-ethyl-1H-pyrazolo[3,4-b]pyridin-4-yl)amino)methyl)benzenesulfonimidamide]: the IC50 in assay [1] was 10 to 100 nM; in assay [2], 100 to 1000 nM; in assay [3] it was 10 to 100 nM; in assay [4], not below 1000 nM.
As for `N=S(N)(=O)c1ccc(CNc2ccnc3[nH]nc(-c4ccccc4)c23)cc1` (centres unmarked) [Compound 1B, 4-(((3-phenyl-1H-pyrazolo[3,4-b]pyridin-4-yl)amino)methyl)benzenesulfonimidamide], the IC50 in assay [1] is 10 to 100 nM; in assay [2], 10 to 100 nM; in assay [3] it was 100 to 1000 nM; in assay [4] it was 100 to 1000 nM.
Turning to `N#CCn1nc(Cl)c2c(NCC3CCN([S@](N)(=O)=NC#N)CC3)ccnc21` [Compound 15F, (R)-4-(((3-chloro-1-(cyanomethyl)-1H-pyrazolo[3,4-b]pyridin-4-yl)amino)methyl)-N′-cyanopiperidine-1-sulfonimidamide], the IC50 in assay [1] was less than 10 nM; in assay [2], less than 10 nM; in assay [3] it was 100 to 1000 nM; in assay [4], 100 to 1000 nM.
`CCn1nc(Cl)c2c(NCC3CCN(S(=N)(=O)CCC#N)CC3)ccnc21` (centres unmarked) [Compound 14E, 3-(4-(((3-chloro-1-ethyl-1H-pyrazolo[3,4-b]pyridin-4-yl)amino)methyl)piperidine-1-sulfonimidoyl)propanenitrile]: the IC50 is 10 to 100 nM in assay [1], not below 1000 nM in assay [2], not below 1000 nM in assay [3] and not below 1000 nM in assay [4].
Consider `N#CCn1nc(Cl)c2c(NCc3ccc(S(N)(=O)=NC#N)cc3)ccnc21` (centres unmarked) [Compound 12H, 4-(((3-chloro-1-(cyanomethyl)-1H-pyrazolo[3,4-b]pyridin-4-yl)amino)methyl)-N′-cyanobenzenesulfonimidamide], for which the half-maximal inhibitory concentration (IC50) was less than 10 nM in assay [1], less than 10 nM in assay [2], 100 to 1000 nM in assay [3] and not below 1000 nM in assay [4].
`C#CCn1nc(Cl)c2c(NCc3ccc([S@](=N)(=O)NC#N)cc3)ccnc21` [Compound 12J, (R)-4-(((3-chloro-1-(prop-2-yn-1-yl)-1H-pyrazolo[3,4-b]pyridin-4-yl)amino)methyl)-N-cyanobenzenesulfonimidamide]: the IC50 is less than 10 nM in assay [1], less than 10 nM in assay [2], 100 to 1000 nM in assay [3] and not below 1000 nM in assay [4].
Turning to `CCn1ncc2c(NCc3ccc(S(N)(=O)=NC)cc3)ccnc21` (centres unmarked) [Compound 3A, 4-(((1-ethyl-1H-pyrazolo[3,4-b]pyridin-4-yl)amino)methyl)-N′-methylbenzenesulfonimidamide], the IC50 in assay [1] was 100 to 1000 nM; in assay [2], not below 1000 nM; in assay [3] it was not below 1000 nM; in assay [4], not below 1000 nM.
